# Columns and labels:
# [1] = target: T1, Protein cereblon/Serine/threonine-protein kinase PAK 1 (Homo sapiens) (UniProt Q13153+Q96SW2); assay: PROTAC activity at CRBN/PAK1 in human MDA-MB-231 cells assessed as induction of protein degradation at 2.5 uM incubated for 48 hrs by Western blot analysis relative to control; assay type: cell-based
# MDA-MB-231 = assay: Antiproliferative activity against human MDA-MB-231 cells incubated for 48 hrs by MTT assay; assay type: functional, cell-based; conditions: MDA-MB-231, 48 h
# [2] = target: T1, Protein cereblon/Serine/threonine-protein kinase PAK 1 (Homo sapiens); assay: PROTAC activity at CRBN/PAK1 in human MDA-MB-231 cells assessed as fold change in protein expression at 2.5 uM incubated for 48 hrs by Western blot analysis relative to control; assay type: cell-based
# [3] = target: T2, von Hippel-Lindau disease tumor suppressor/Serine/threonine-protein kinase PAK 1 (Homo sapiens, UniProt Q13153+P40337); assay: PROTAC activity at VHL/PAK1 in human MDA-MB-231 cells assessed as induction of protein degradation at 2.5 uM incubated for 48 hrs by Western blot analysis relative to control; assay type: cell-based
# T2 sequence (Q13153 2-545 limits assumed): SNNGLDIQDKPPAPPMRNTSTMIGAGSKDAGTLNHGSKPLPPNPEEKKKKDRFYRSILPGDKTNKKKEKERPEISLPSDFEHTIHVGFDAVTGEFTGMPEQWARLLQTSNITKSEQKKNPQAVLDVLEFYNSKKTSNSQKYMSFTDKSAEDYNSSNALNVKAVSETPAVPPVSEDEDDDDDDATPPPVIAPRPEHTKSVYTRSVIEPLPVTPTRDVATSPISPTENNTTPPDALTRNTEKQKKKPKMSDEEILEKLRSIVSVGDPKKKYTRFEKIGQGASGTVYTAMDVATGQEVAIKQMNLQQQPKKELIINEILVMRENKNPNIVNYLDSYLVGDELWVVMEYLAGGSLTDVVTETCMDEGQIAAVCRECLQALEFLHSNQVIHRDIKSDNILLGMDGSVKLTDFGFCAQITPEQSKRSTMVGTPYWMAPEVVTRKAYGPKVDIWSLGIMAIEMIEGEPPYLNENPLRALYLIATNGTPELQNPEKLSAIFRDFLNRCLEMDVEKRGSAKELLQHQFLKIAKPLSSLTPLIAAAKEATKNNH
# T2 sequence (P40337 whole entry partner): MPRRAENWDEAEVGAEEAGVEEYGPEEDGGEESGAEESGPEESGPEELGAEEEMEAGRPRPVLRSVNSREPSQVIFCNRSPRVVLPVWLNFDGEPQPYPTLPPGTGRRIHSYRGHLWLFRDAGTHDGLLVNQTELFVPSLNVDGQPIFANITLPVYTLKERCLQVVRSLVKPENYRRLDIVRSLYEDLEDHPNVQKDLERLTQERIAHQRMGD
# [4] = target: T2, von Hippel-Lindau disease tumor suppressor/Serine/threonine-protein kinase PAK 1; assay: PROTAC activity at VHL/PAK1 in human MDA-MB-231 cells assessed as fold change in protein expression at 2.5 uM incubated for 48 hrs by Western blot analysis relative to control; assay type: cell-based
# [5] = target: T1, Protein cereblon/Serine/threonine-protein kinase PAK 1 (Homo sapiens); assay: PROTAC activity at CRBN/PAK1 in human MDA-MB-231 cells assessed as induction of protein degradation at 0.1 uM incubated for 48 hrs by Western blot analysis relative to control; assay type: cell-based
# [6] = target: T2, von Hippel-Lindau disease tumor suppressor/Serine/threonine-protein kinase PAK 1; assay: PROTAC activity at VHL/PAK1 in human MDA-MB-231 cells assessed as induction of protein degradation at 0.1 uM incubated for 48 hrs by Western blot analysis relative to control; assay type: cell-based
# T1 sequence (Q13153 whole entry, looked up): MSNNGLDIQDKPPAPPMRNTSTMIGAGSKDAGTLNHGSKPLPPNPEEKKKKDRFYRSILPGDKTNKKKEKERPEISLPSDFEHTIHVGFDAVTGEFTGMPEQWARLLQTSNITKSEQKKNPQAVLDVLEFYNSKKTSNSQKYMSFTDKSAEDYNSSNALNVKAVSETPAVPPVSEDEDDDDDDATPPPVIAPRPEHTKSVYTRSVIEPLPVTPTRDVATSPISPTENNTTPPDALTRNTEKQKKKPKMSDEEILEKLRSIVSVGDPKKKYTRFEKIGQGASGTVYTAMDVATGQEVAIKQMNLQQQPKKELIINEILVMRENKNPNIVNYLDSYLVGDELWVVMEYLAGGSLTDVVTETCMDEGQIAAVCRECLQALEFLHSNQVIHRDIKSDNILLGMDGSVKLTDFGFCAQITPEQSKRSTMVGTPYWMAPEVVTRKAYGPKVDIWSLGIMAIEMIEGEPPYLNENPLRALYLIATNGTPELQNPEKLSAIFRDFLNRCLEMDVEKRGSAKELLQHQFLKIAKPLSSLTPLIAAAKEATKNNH
# T1 sequence (Q96SW2 whole entry, looked up): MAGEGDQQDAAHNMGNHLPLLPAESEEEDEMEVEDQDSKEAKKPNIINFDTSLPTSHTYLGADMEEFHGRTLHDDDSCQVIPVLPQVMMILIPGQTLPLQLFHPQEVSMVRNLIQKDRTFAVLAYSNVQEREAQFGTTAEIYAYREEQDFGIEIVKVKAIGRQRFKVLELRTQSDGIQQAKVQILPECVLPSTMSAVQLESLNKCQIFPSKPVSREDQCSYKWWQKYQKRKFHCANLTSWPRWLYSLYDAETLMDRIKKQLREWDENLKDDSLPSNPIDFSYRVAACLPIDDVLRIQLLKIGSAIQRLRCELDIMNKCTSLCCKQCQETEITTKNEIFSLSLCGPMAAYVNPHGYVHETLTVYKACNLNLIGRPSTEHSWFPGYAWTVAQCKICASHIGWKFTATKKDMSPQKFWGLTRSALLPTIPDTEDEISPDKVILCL
Structure (SMILES),Activity [1] [%],IC50 (MDA-MB-231) [µM],fold change (FC) [2],Activity [3] [%],fold change (FC) [4],Activity [5] [%],Activity [6] [%]
CNc1ncc2cc(-c3ccc(Cl)cc3Cl)c(=O)n(CCOCCOCCOCCn3cc(CNc4cccc5c4C(=O)N(C4CCC(=O)NC4=O)C5=O)nn3)c2n1 (stereo not given),1.2,> 50,0.988,–,–,–,–
Cc1ncsc1-c1ccc([C@H](C)NC(=O)[C@@H]2C[C@@H](O)CN2C(=O)[C@@H](NC(=O)CCCCc2cn(CCCCCCCn3c(=O)c(-c4ccc(Cl)cc4Cl)cc4cnc(NC5CC5)nc43)nn2)C(C)(C)C)cc1,–,> 50,–,18.2,0.812,–,–
O=C1CCC(N2C(=O)c3cccc(NCc4cn(CCCCCn5c(=O)c(-c6ccc(Cl)cc6Cl)cc6cnc(NC7CC7)nc65)nn4)c3C2=O)C(=O)N1 (stereo not given),19.2,> 50,0.809,–,–,–,–
Cc1ncsc1-c1ccc([C@H](C)NC(=O)[C@@H]2C[C@@H](O)CN2C(=O)[C@@H](NC(=O)CCc2cn(CCCCCn3c(=O)c(-c4ccc(Cl)cc4Cl)cc4cnc(NC5CC5)nc43)nn2)C(C)(C)C)cc1,–,> 50,–,17.4,0.826,–,–
Cc1ncsc1-c1ccc([C@H](C)NC(=O)[C@@H]2C[C@@H](O)CN2C(=O)[C@@H](NC(=O)CCc2cn(CCOCCOCCOCCn3c(=O)c(-c4ccc(Cl)cc4Cl)cc4cnc(NC5CC5)nc43)nn2)C(C)(C)C)cc1,–,> 50,–,7.1,0.929,–,–
Cc1ncsc1-c1ccc([C@H](C)NC(=O)[C@@H]2C[C@@H](O)CN2C(=O)[C@@H](NC(=O)CCc2cn(CCCCn3c(=O)c(-c4ccc(Cl)cc4Cl)cc4cnc(NC5CC5)nc43)nn2)C(C)(C)C)cc1,–,> 50,–,10.4,0.896,–,–
Cc1ncsc1-c1ccc([C@H](C)NC(=O)[C@@H]2C[C@@H](O)CN2C(=O)[C@@H](NC(=O)CCCCc2cn(CCCCn3c(=O)c(-c4ccc(Cl)cc4Cl)cc4cnc(NC5CC5)nc43)nn2)C(C)(C)C)cc1,–,> 50,–,14.4,0.856,–,–
Cc1ncsc1-c1ccc([C@H](C)NC(=O)[C@@H]2C[C@@H](O)CN2C(=O)[C@@H](NC(=O)CCCc2cn(CCOCCOCCOCCn3c(=O)c(-c4ccc(Cl)cc4Cl)cc4cnc(NC5CC5)nc43)nn2)C(C)(C)C)cc1,–,> 50,–,5.1,0.949,–,–
CNc1ncc2cc(-c3ccc(Cl)cc3Cl)c(=O)n(CCOCCOCCn3cc(CNc4cccc5c4C(=O)N(C4CCC(=O)NC4=O)C5=O)nn3)c2n1 (stereo not given),4.1,> 50,0.959,–,–,–,–
Cc1ncsc1-c1ccc([C@H](C)NC(=O)[C@@H]2C[C@@H](O)CN2C(=O)[C@@H](NC(=O)CCCCc2cn(CCCCCCn3c(=O)c(-c4ccc(Cl)cc4Cl)cc4cnc(NC5CC5)nc43)nn2)C(C)(C)C)cc1,–,> 50,–,24.6,0.754,–,–
Cc1ncsc1-c1ccc([C@H](C)NC(=O)[C@@H]2C[C@@H](O)CN2C(=O)[C@@H](NC(=O)CCCCc2cn(CCOCCOCCn3c(=O)c(-c4ccc(Cl)cc4Cl)cc4cnc(NC5CC5)nc43)nn2)C(C)(C)C)cc1,–,> 50,–,-4.8,1.05,–,–
CNc1ncc2cc(-c3ccc(Cl)cc3Cl)c(=O)n(CCCCn3cc(CNc4cccc5c4C(=O)N(C4CCC(=O)NC4=O)C5=O)nn3)c2n1 (stereo not given),2.8,> 50,0.583,–,–,–,–
CNc1ncc2cc(-c3ccc(Cl)cc3Cl)c(=O)n(CCOCCn3cc(CNc4cccc5c4C(=O)N(C4CCC(=O)NC4=O)C5=O)nn3)c2n1 (stereo not given),8.2,> 50,0.918,–,–,–,–
CNc1ncc2cc(-c3ccc(Cl)cc3Cl)c(=O)n(CCCCCn3cc(CNc4cccc5c4C(=O)N(C4CCC(=O)NC4=O)C5=O)nn3)c2n1 (stereo not given),-5.4,> 50,0.97,–,–,–,–
O=C1CCC(N2C(=O)c3cccc(NCc4cn(CCOCCOCCOCCn5c(=O)c(-c6ccc(Cl)cc6Cl)cc6cnc(NC7CC7)nc65)nn4)c3C2=O)C(=O)N1 (stereo not given),-6.9,> 50,1.07,–,–,–,–

# The next lines start with the values.
Activity [1] [%],IC50 (MDA-MB-231) [µM],fold change (FC) [2],Activity [3] [%],fold change (FC) [4],Activity [5] [%],Activity [6] [%],Structure (SMILES)
1,> 50,0.99,–,–,–,–,O=C1CCC(N2C(=O)c3cccc(NCc4cn(CCOCCn5c(=O)c(-c6ccc(Cl)cc6Cl)cc6cnc(NC7CC7)nc65)nn4)c3C2=O)C(=O)N1 (stereo not given)
–,> 50,–,12,0.88,–,–,Cc1ncsc1-c1ccc([C@H](C)NC(=O)[C@@H]2C[C@@H](O)CN2C(=O)[C@@H](NC(=O)CCCCc2cn(CCOCCOCCOCCn3c(=O)c(-c4ccc(Cl)cc4Cl)cc4cnc(NC5CC5)nc43)nn2)C(C)(C)C)cc1
–,> 50,–,3.8,0.962,–,–,Cc1ncsc1-c1ccc([C@H](C)NC(=O)[C@@H]2C[C@@H](O)CN2C(=O)[C@@H](NC(=O)CCc2cn(CCOCCOCCn3c(=O)c(-c4ccc(Cl)cc4Cl)cc4cnc(NC5CC5)nc43)nn2)C(C)(C)C)cc1
23.9,34.6,0.761,–,–,–,–,O=C1CCC(N2C(=O)c3cccc(NCc4cn(CCCCn5c(=O)c(-c6ccc(Cl)cc6Cl)cc6cnc(NC7CC7)nc65)nn4)c3C2=O)C(=O)N1 (stereo not given)
23.9,> 50,1.05,–,–,–,–,O=C1CCC(N2C(=O)c3cccc(NCc4cn(CCOCCOCCn5c(=O)c(-c6ccc(Cl)cc6Cl)cc6cnc(NC7CC7)nc65)nn4)c3C2=O)C(=O)N1 (stereo not given)
–,> 50,–,29.1,0.709,–,–,Cc1ncsc1-c1ccc([C@H](C)NC(=O)[C@@H]2C[C@@H](O)CN2C(=O)[C@@H](NC(=O)CCCc2cn(CCCCCCn3c(=O)c(-c4ccc(Cl)cc4Cl)cc4cnc(NC5CC5)nc43)nn2)C(C)(C)C)cc1
41.7,25.8,0.653,–,–,15.3,–,CNc1ncc2cc(-c3ccc(Cl)cc3Cl)c(=O)n(CCCCCCn3cc(CNc4cccc5c4C(=O)N(C4CCC(=O)NC4=O)C5=O)nn3)c2n1 (stereo not given)
–,> 50,–,2.7,0.973,–,–,Cc1ncsc1-c1ccc([C@H](C)NC(=O)[C@@H]2C[C@@H](O)CN2C(=O)[C@@H](NC(=O)CCCc2cn(CCOCCOCCn3c(=O)c(-c4ccc(Cl)cc4Cl)cc4cnc(NC5CC5)nc43)nn2)C(C)(C)C)cc1
–,35.8,–,30.1,0.699,–,–,Cc1ncsc1-c1ccc([C@H](C)NC(=O)[C@@H]2C[C@@H](O)CN2C(=O)[C@@H](NC(=O)CCCCc2cn(CCOCCn3c(=O)c(-c4ccc(Cl)cc4Cl)cc4cnc(NC5CC5)nc43)nn2)C(C)(C)C)cc1
–,16.9,–,44.3,0.557,–,15.7,Cc1ncsc1-c1ccc([C@H](C)NC(=O)[C@@H]2C[C@@H](O)CN2C(=O)[C@@H](NC(=O)CCc2cn(CCOCCn3c(=O)c(-c4ccc(Cl)cc4Cl)cc4cnc(NC5CC5)nc43)nn2)C(C)(C)C)cc1
34.7,32.1,0.761,–,–,–,–,O=C1CCC(N2C(=O)c3cccc(NCc4cn(CCCCCCn5c(=O)c(-c6ccc(Cl)cc6Cl)cc6cnc(NC7CC7)nc65)nn4)c3C2=O)C(=O)N1 (stereo not given)
–,5.47,–,57,0.43,–,27.4,Cc1ncsc1-c1ccc([C@H](C)NC(=O)[C@@H]2C[C@@H](O)CN2C(=O)[C@@H](NC(=O)CCCCc2cn(CCCCCn3c(=O)c(-c4ccc(Cl)cc4Cl)cc4cnc(NC5CC5)nc43)nn2)C(C)(C)C)cc1
–,2.01,–,68.2,0.318,–,41,Cc1ncsc1-c1ccc([C@H](C)NC(=O)[C@@H]2C[C@@H](O)CN2C(=O)[C@@H](NC(=O)CCCc2cn(CCCCCCCn3c(=O)c(-c4ccc(Cl)cc4Cl)cc4cnc(NC5CC5)nc43)nn2)C(C)(C)C)cc1
–,27.1,–,31.7,0.683,–,–,Cc1ncsc1-c1ccc([C@H](C)NC(=O)[C@@H]2C[C@@H](O)CN2C(=O)[C@@H](NC(=O)CCCc2cn(CCOCCn3c(=O)c(-c4ccc(Cl)cc4Cl)cc4cnc(NC5CC5)nc43)nn2)C(C)(C)C)cc1
45.5,18.9,0.545,–,–,23.1,–,CNc1ncc2cc(-c3ccc(Cl)cc3Cl)c(=O)n(CCCCCCCn3cc(CNc4cccc5c4C(=O)N(C4CCC(=O)NC4=O)C5=O)nn3)c2n1 (stereo not given)
56.1,7.35,0.44,–,–,18.3,–,O=C1CCC(N2C(=O)c3cccc(NCc4cn(CCCCCCCn5c(=O)c(-c6ccc(Cl)cc6Cl)cc6cnc(NC7CC7)nc65)nn4)c3C2=O)C(=O)N1 (stereo not given)
–,33.2,–,32.1,0.679,–,–,Cc1ncsc1-c1ccc([C@H](C)NC(=O)[C@@H]2C[C@@H](O)CN2C(=O)[C@@H](NC(=O)CCCc2cn(CCCCn3c(=O)c(-c4ccc(Cl)cc4Cl)cc4cnc(NC5CC5)nc43)nn2)C(C)(C)C)cc1
–,3.78,–,67.1,0.329,–,39.1,Cc1ncsc1-c1ccc([C@H](C)NC(=O)[C@@H]2C[C@@H](O)CN2C(=O)[C@@H](NC(=O)CCc2cn(CCCCCCn3c(=O)c(-c4ccc(Cl)cc4Cl)cc4cnc(NC5CC5)nc43)nn2)C(C)(C)C)cc1
–,16.3,–,45.5,0.545,–,11.9,Cc1ncsc1-c1ccc([C@H](C)NC(=O)[C@@H]2C[C@@H](O)CN2C(=O)[C@@H](NC(=O)CCCc2cn(CCCCCn3c(=O)c(-c4ccc(Cl)cc4Cl)cc4cnc(NC5CC5)nc43)nn2)C(C)(C)C)cc1

# Source: ChEMBL document CHEMBL6127034, “Design, synthesis and biological evaluation of a novel PAK1 degrader for the treatment of triple negative breast cancer” (Bioorg Med Chem, 2024)
